The values below come from patent publication US8431529B2, “Bi-dentate compounds as kinase inhibitors” (Sanford-Burnham Medical Research Institute, priority 2007, dated 2013).

Non-standard residues stand in square brackets, D forms with d. Residues, ends and D or L forms follow the SMILES beside them. No end group written: not given here. *: point of attachment. X1 = O=C(NCCCN*)c1ccc(-c2n[nH]c3ccccc23)cc1 A value given as a limit tells only on which side of the number the result lay.

For test [1], the target named is T1, JNK1 (Homo sapiens, UniProt P45983). Kind of test: DELFIA assay: displacement of biotinylated pepJIP1 (L-JIP1 peptide) from GST-JNK1. The format is binding. Conditions: for Delfia Assay (Displacement of L-JIP1 peptide from JNK), ND class: Table 1, ND with footnote. As for the experimental part: In order to define an optimal interacting docking peptide sequence for JNK, twenty peptide sequences were tested, which were derived from its putative substrates and scaffolding proteins, all presenting a D-domain consensus motif. Each peptide was tested for its ability to displace pepJIP1 (residues 153-164) from JNK1 by using a Dissociation Enhanced Lanthanide Fluoro-Immuno Assay (DELFIA) platform. DELFIA is a heterogeneous assay whereby a biotin-linked pepJIP1 is adsorbed onto a streptavidin-coated plate followed by incubation with GST-JNK1. Detection of the pepJIP1/GST-JNK1 complex is facilitated by a highly fluorescent anti-GST Eu-antibody conjugate (Perkin-Elmer).
DELFIA Assay (dissociation enhanced lanthanide fluoro-immuno assay). […] After 1 hr incubation and elimination of unbound biotin-pepJIP1 by 3 washing steps, 87 μL of Eu-labeled anti-GST antibody solution (300 ng/ml; 1.9 nM), 2.5 μL DMSO solution containing test compound, and 10 μL solution of GST-JNK1 for a final protein concentration of 10 nM was added. After 1 hr incubation at 0° C., each well was washed 5 times to eliminate unbound protein and the Eu-antibody if displaced by a test compound. Subsequently, 200 μL of enhancement solution (Perkin-Elmer) was added to each well and fluorescence measured after 10 min incubation (excitation wavelength, 340 nm; emission wavelength, 615 nm). Controls include unlabeled peptide and blanks receiving no compounds. Protein and peptide solutions were prepared in DELFIA buffer (Perkin-Elmer).

For test [2], the target named is T1, JNK1. The test can be described thus: LanthaScreen TR-FRET in vitro kinase activity assay, JNK1 phosphorylation of ATF2. The note with it: for Kinase Activity Assay (JNK), ND class: Table 1, ND with footnote. The format is biochemical. Here is the method: LanthaScreen™ In vitro Kinase Assay. LanthaScreen™ assay platform from Invitrogen was utilized. The time-resolved fluorescence resonance energy transfer assay (TR-FRET) was performed in 384 well plates. Each well received JNK1 (100 ng/mL), ATF2 (200 nM), and ATP (1 μM) in 50 mM HEPES, 10 mM MgCl2, 1 mM EGTA and 0.01% Brij-35, pH 7.5 and test compounds. The kinase reaction was performed at room temperature for 1 hr. After this time, the terbium labeled antibody and EDTA were added into each well. After an additional hour incubation, the signal was measured at 520/495 nm emission ratio on a BMG Pherastar fluorescence plate reader.

Another test has as its target p38α (Homo sapiens, UniProt Q16539). The test can be described thus: LanthaScreen kinase activity assay with ATF2 substrate versus p38α. The format is biochemical. As for the experimental part: In order to confer further favorable pharmacological properties to this compound for in vivo studies, analogous to the clinical candidate D-JNK1^15, an all-D retro-inverso version of BI77B8 fused to the cell penetrating HIV-TAT sequence was prepared. […] LanthaScreen™ In vitro Kinase Assay. LanthaScreen™ assay platform from Invitrogen was utilized. The time-resolved fluorescence resonance energy transfer assay (TR-FRET) was performed in 384 well plates. […] After this time, the terbium labeled antibody and EDTA were added into each well. After an additional hour incubation, the signal was measured at 520/495 nm emission ratio on a BMG Pherastar fluorescence plate reader.

Setting [3] is: Table 1, read-out: Delfia Assay (Displacement of L-JIP1 peptide from JNK) IC50.
Where [4] appears, read: Table 1, read-out: Kinase Activity Assay (JNK) IC50.
[5] abbreviates: Table 3, read-out: pepJIP Displacement IC50.
Setting [6] is: JNK1, ATF2 substrate, read-out: Kinase Inhibition IC50.
Where [7] appears, read: Table 2, read-out: IC50 (μM), Kinase Assay.

Chain of p38α (Q16539 whole entry, the tested form may be a part): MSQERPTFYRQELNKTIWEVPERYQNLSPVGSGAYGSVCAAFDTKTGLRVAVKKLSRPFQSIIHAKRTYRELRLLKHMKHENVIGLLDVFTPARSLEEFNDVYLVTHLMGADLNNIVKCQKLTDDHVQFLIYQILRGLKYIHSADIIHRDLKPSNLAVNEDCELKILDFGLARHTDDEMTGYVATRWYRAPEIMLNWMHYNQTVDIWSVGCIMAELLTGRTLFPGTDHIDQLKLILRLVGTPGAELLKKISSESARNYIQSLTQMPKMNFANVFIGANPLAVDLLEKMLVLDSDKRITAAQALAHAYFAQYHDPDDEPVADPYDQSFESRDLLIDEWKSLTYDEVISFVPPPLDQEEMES
T1 sequence (P45983 whole entry, species assumed, the tested form may be a part): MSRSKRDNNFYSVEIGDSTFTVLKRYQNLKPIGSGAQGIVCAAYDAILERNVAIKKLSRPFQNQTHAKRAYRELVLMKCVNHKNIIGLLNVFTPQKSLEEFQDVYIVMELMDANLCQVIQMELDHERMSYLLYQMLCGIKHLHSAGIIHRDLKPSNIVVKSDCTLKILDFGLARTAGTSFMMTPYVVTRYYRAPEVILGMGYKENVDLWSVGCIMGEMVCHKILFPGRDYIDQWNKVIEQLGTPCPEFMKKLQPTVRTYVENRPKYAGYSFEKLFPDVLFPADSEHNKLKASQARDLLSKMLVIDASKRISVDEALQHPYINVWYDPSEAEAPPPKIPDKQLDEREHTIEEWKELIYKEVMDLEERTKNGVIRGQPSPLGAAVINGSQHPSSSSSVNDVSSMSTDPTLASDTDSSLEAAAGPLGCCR

As to Ac-RPTTLNLGG-OH, the IC50 at JNK1 [1] (setting [3]) is 18000 nM. The inhibition at 50 µM at JNK1 [2] (at 50 μM, read-out: Kinase Activity Assay (JNK) % inhibition) worked out at 25%.

Consider Ac-PTTLNLGG-OH, for which, in the test with JNK1 [1], the “Delfia Assay (Displacement of L-JIP1 peptide from JNK), ND class” value (shortened to “Delfia Assay”) is reported as “ND^*) (In the Delfia Assay, no displacement up to 100 μM)”. Besides, the “Kinase Activity Assay (JNK), ND class” value with JNK1 [2] is “ND^*) (in the Kinase Assay, no activity at 25 μM)”.

For “GGLNLTTPRGGRRRQRRKKRG-NH2 (GG[dL][dN][dL][dT][dT][dP][dR]GG[dR][dR][dR][dQ][dR][dR][dK][dK][dR]G-NH2)”, the “Kinase Activity Assay (JNK) % inhibition” value with JNK1 [2] (at 50 μM) is listed as 11%. Also, the “Kinase Activity Assay (p38[…]) % at 50 μM” value in the test with p38α came out at 0% at 50 μm.

As for “Compound I (RPTTLNLGG; also: conjugate per reaction scheme A)”, the “Inhibitor activity compared with peptide Ac-RPTTLNLGG-OH and product 8” value with JNK1 [1] (FIGS. 1A-1D, Delfia Assay) is recorded as “substantially more active”. Also, in the test with JNK1 [2] (FIGS. 2A, 2B), the “ATP competition analysis” value is “competitive, at least to some extent”. Further, the “ATF2 competition analysis” value with JNK1 [2] (FIGS. 2C, 2D) is “competitive, at least to some extent”. The “Selectivity relative to p38a” value with p38α (FIGS. 3A, 3B) is on record as “good selectivity”.

Take `NCCCNC(=O)c1ccc(-c2n[nH]c3ccccc23)cc1`: the “Delfia Assay” value on JNK1 [1] is given as “ND^*) (In the Delfia Assay, no displacement up to 100 μM)”.

Consider “AcGRKKRRQRRRGGRPTTLNLGG (Ac-GRKKRRQRRRGGRPTTLNLGG)”, for which the “Kinase Activity Assay (JNK) % inhibition” value in the test with JNK1 [2] (at 50 μM) turned out to be 90%. Moreover, the “Kinase Activity Assay (p38[…]) % at 50 μM” value with p38α is 6% at 50 μm.

Turning to Ac-LNLGG-OH, the “Delfia Assay” value at JNK1 [1] is given as “ND^*) (In the Delfia Assay, no displacement up to 100 μM)”. For the same compound, on JNK1 [2], the “Kinase Activity Assay (JNK), ND class” value is reported as “ND^*) (in the Kinase Assay, no activity at 25 μM)”.

As to RPKRPTTLNLF, the values for the half-maximal inhibitory concentration (IC50) with JNK1 [1] (setting [3]) and with JNK1 [2] (setting [4]) were 2900 nM and 0.423 µM, respectively. For the same compound, at p38α, the “Kinase Activity Assay (p38[…]) % at 50 μM” value stood at 6% at 50 μM.

Turning to `CC(C)CC(NC(=O)C(CC(N)=O)NC(=O)C(CC(C)C)NC(=O)C(NC(=O)C(NC(=O)C1CCCN1C(=O)C(N)CCCNC(=N)N)C(C)O)C(C)O)C(=O)NCC(=O)NCC(=O)NCCCNC(=O)c1ccc(-c2n[nH]c3ccccc23)cc1` (centres unmarked) [BI-77B8] (H-RPTTLNLGG-X1; configuration not given here), the “Affinity in competition with pepJIP1 for JNK1 binding” value at JNK1 [1] was “sub-nanomolar”. Further, the 50% inhibitory concentration (IC50) was 900 nM at JNK1 [1] (setting [5]) and 0.7 µM at JNK1 [2] (setting [6]). The “Affinity in inhibition of JNK1 kinase activity” value at JNK1 [2] is on record as “sub-nanomolar”. On JNK1 [2] (direct comparison with pepJIP1), the “Improvement of kinase inhibition compared with pepJIP1” value is on record as “over 100 fold”.

Take `CN1CCN(CCC(=O)NCCCCCNC(=O)c2ccc(-c3n[nH]c4ccccc34)cc2)CC1`: at JNK1 [2] (setting [7]), the concentration for half-maximal inhibition (IC50) stood at 4.5 µM.

For `CC(C)(C)OC(=O)NCCCCCNC(=O)c1ccc(-c2n[nH]c3ccccc23)cc1`, the half-inhibitory concentration (IC50) at JNK1 [2] (setting [7]) is 2.3 µM.

In the case of `NCCCNC(=O)c1ccc(-c2n[nH]c3ccc(NC(=O)Cc4cccs4)cc23)cc1`, the concentration for half-maximal inhibition (IC50) on JNK1 [2] (setting [7]) came to 1.9 µM.

As to `CC(C)(C)OC(=O)NCCCNC(=O)c1ccc(-c2n[nH]c3ccc(NC(=O)Cc4cccs4)cc23)cc1`, the half-inhibitory concentration (IC50) on JNK1 [2] (setting [7]) is 1.2 µM.

“Ac-tdqsrpvqpflnlttprrprpprrrqrrkkrg-OH [D-JNKI]”: the half-inhibitory concentration (IC50) with JNK1 [1] (setting [5]) is approximately 10000 nM; with JNK1 [2] (setting [6]), more than 50 µM.

For Ac-RPTTLNL-OH [BI-77F10, Ac-RPTTLNL-OH], the IC50 is 4500 nM on JNK1 [1] (setting [5]) and more than 50 µM at JNK1 [2] (setting [6]). In addition, the “Inhibition of JNK1 phosphorylation of ATF2” value at JNK1 [2] (at concentrations up to 25 μM) is reported as “unable to inhibit”.

Consider `COC(=O)CCCNC(=O)c1ccc(-c2n[nH]c3ccccc23)cc1`, for which the 50% inhibitory concentration (IC50) on JNK1 [2] (setting [7]) was determined as 0.9 µM.

Consider `CC(C)(C)OC(=O)NCCCNC(=O)c1ccc(-c2n[nH]c3ccccc23)cc1`, for which the “Delfia Assay” value on JNK1 [1] is “ND^*) (In the Delfia Assay, no displacement up to 100 μM)”. The IC50 at JNK1 [2] (setting [4]) worked out at 3.5 µM.

Consider Ac-LNL-OH, for which the “Delfia Assay” value at JNK1 [1] is “ND^*) (In the Delfia Assay, no displacement up to 100 μM)”. Also, the “Kinase Activity Assay (JNK), ND class” value on JNK1 [2] is given as “ND^*) (in the Kinase Assay, no activity at 25 μM)”.

For the compound `COC(=O)c1ccc(-c2n[nH]c3ccccc23)cc1`, the IC50 at JNK1 [2] (setting [7]) stood at 9.7 µM.
